Reference: patent US11040028B2, “Penicinotam derivative, preparation method and use thereof” (OCEAN UNIVERSITY OF CHINA, priority 2017, dated 2021)

What was measured:
Type in all cases: cell-based
BHK-21 cells = experiment: Anti-fibrosis activity test: inhibition of BHK-21 cell proliferation (CCK-8); conditions: Mesocricetus auratus, BHK-21, 48 h
How it was run: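 BHK-21 cells seeded at 2×10^4 cells/mL, allowed to adhere 24 h at 37° C, 5% CO2, then exposed to compounds at graded concentrations in triplicate for 48 h. CCK-8 added for 2 h and absorbance read at 450 nm; inhibition rate taken as (1−Ai/Ao)×100% and IC50 fitted.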

[1] = system: human lung fibroblasts HFL1; experiment: Anti-fibrosis activity test: inhibition of proliferation of human lung fibroblasts HFL1 (CCK-8); conditions: Homo sapiens, HFL1, 48 h
How it was run: (§1)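 Proliferation read by CCK-8 (2 h, A450) after 48 h compound treatment of cells plated at 2×10^4 cells/mL and allowed 24 h attachment, triplicate per concentration. Inhibition rate derived from absorbance relative to untreated blank, with IC50 fitted; pirfenidone as positive control.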

[2] = system: human hepatic stellate cells LX-2; experiment: Anti-fibrosis activity test: inhibition of proliferation of human hepatic stellate cells LX-2 (CCK-8); conditions: Homo sapiens, 48 h
How it was run: as §1

[3] = system: human fibrosarcoma cells HT-1080; experiment: Anti-fibrosis activity test: inhibition of proliferation of human fibrosarcoma cells HT-1080 (CCK-8); conditions: Homo sapiens, HT-1080, 48 h
How it was run: as §1

[4] = system: human dermal fibroblasts CCC-ESF-1; experiment: Anti-fibrosis activity test: inhibition of proliferation of human dermal fibroblasts CCC-ESF-1 (CCK-8); conditions: Fibroblast
How it was run: as §1

[5] = system: human embryonic lung fibroblast IMR-90; experiment: Anti-fibrosis activity test: inhibition of proliferation of human embryonic lung fibroblast IMR-90 (CCK-8)
How it was run: as §1

[6] = system: cardiac fibroblast RAT-iCell-C002; experiment: Anti-fibrosis activity test: inhibition of proliferation of cardiac fibroblast RAT-iCell-C002 (CCK-8); conditions: Cardiac fibroblast, 48 h
How it was run: as §1

[7] = system: mouse macrophages (RAW264.7); experiment: Lipopolysaccharide-induced NO secretion in macrophages (Griess); conditions: Mus musculus, RAW264.7, 24 h, RAW264.7, LPS 1 μg/ml, a/b isomers given as first/second symbol, read-out: IC50 (μM), inhibition of lipopolysaccharide-induced NO secretion in macrophages
How it was run: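 Percent inhibition of NO release was measured by Griess absorbance at 548 nm in supernatants. Cells were mouse RAW264.7 macrophages in 10% FBS DMEM, treated with graded compound concentrations and activated by LPS (1 μg/ml) for 24 h.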

[8] = CCK-8, 48 hours after administration
[9] = human lung fibroblasts HFL1, CCK-8, 48 hours
[10] = human hepatic stellate cells LX-2, CCK-8, 48 hours
[11] = human fibrosarcoma cells HT-1080, CCK-8, 48 hours
[12] = human dermal fibroblasts CCC-ESF-1, CCK-8, 48 hours
[13] = human embryonic lung fibroblast IMR-90, CCK-8, 48 hours
[14] = cardiac fibroblast RAT-iCell-C002, CCK-8, 48 hours
[15] = Homo sapiens, CCC-ESF-1 cells, 48 h, CCK-8
[16] = Homo sapiens, IMR-90 cells, 48 h, CCK-8

SMILES | IC50 [3, 11] [mM] | IC50 [7] [µM] | IC50 ([3]; HT-1080 cells, 48 h, CCK-8) [mM] | IC50 (BHK-21 cells; [8]) [mM] | IC50 [1, 9] [mM] | IC50 [2, 10] [mM] | IC50 [4, 12] [mM] | IC50 [5, 13] [mM] | IC50 [6, 14] [mM] | IC50 (BHK-21 cells; 48 h, CCK-8) [mM] | IC50 ([1]; HFL1 cells, 48 h, CCK-8) [mM] | IC50 ([2]; LX-2, 48 h, LX-2 cells, CCK-8) [mM] | IC50 [4, 15] [mM] | IC50 [5, 16] [mM] | IC50 ([6]; RAT-iCell-C002 cells, CCK-8) [mM]
O=C1c2c(nc3cc(Cl)ccc3c2OCc2ccc(F)cc2)-c2cccn21 [Compound 502b, 6-chloro-9-((4-fluorobenzyl)oxy)-10H-pyrrolizino[1,2-b]quinolin-10-one] | 0.05 to 5 | 1 to 10 | – | 0.05 to 5 | 0.05 to 5 | 0.05 to 5 | 0.05 to 5 | 0.05 to 5 | 0.05 to 5 | – | – | – | – | – | –
O=C1c2c(n(Cc3ccccc3F)c3cc(Cl)ccc3c2=O)-c2cccn21 [Compound 504a, 6-Chloro-4-(2-fluorobenzyl)-9H-pyrrolizino[1,2-b]quinoline-9,10(4H)-dione] | 0.05 to 5 | 1 to 10 | – | < 0.05 | 0.05 to 5 | 0.05 to 5 | 0.05 to 5 | 0.05 to 5 | 0.05 to 5 | – | – | – | – | – | –
O=C1c2c(nc3cc(Cl)ccc3c2OCc2ccccc2F)-c2cccn21 [Compound 504b, 6-chloro-9-((2-fluorobenzyl)oxy)-10H-pyrrolizino[1,2-b]quinolin-10-one] | 0.05 to 5 | 1 to 10 | – | 0.05 to 5 | 0.05 to 5 | 0.05 to 5 | 0.05 to 5 | 0.05 to 5 | 0.05 to 5 | – | – | – | – | – | –
O=C1c2c(n(Cc3ccc(Cl)cc3)c3cc(Cl)ccc3c2=O)-c2cccn21 [Compound 508a, 6-Chloro-4-(4-chlorobenzyl)-9H-pyrrolizino[1,2-b]quinoline-9,10(4H)-dione] | 5 to 20 | 1 to 10 | – | 0.05 to 5 | 0.05 to 5 | 0.05 to 5 | 0.05 to 5 | 0.05 to 5 | 0.05 to 5 | – | – | – | – | – | –
Cc1ccc2[nH]c3c(c(=O)c2c1)-c1cccn1C3=O [Compound 777a, 9-Methyl-5H-pyrrolizino[2,1-b]quinoline-5,11(6H)-dione] | – | 10 to 50 | 0.05 to 5 | – | – | – | – | – | – | < 0.05 | 0.05 to 5 | 0.05 to 5 | 0.05 to 5 | 0.05 to 5 | 0.05 to 5
Cc1ccc2c(=O)c3c([nH]c2c1)C(=O)n1cccc1-3 [Compound 778a, 8-Methyl-5H-pyrrolizino[2,1-b]quinoline-5,11(6H)-dione] | – | 10 to 50 | 0.05 to 5 | – | – | – | – | – | – | 0.05 to 5 | 0.05 to 5 | 0.05 to 5 | 0.05 to 5 | 0.05 to 5 | 0.05 to 5
Cc1ccc2c(O)c3c(nc2c1)C(=O)n1cccc1-3 [Compound 778b, 11-hydroxy-8-methyl-5H-pyrrolizino[2,1-b]quinolin-5-one] | – | 1 to 10 | 0.05 to 5 | – | – | – | – | – | – | 0.05 to 5 | 0.05 to 5 | 0.05 to 5 | 0.05 to 5 | 0.05 to 5 | 0.05 to 5
Cc1cccc2c(O)c3c(nc12)C(=O)n1cccc1-3 [Compound 779b, 11-hydroxy-7-methyl-5H-pyrrolizino[2,1-b]quinolin-5-one] | – | 1 to 10 | 0.05 to 5 | – | – | – | – | – | – | 0.05 to 5 | 0.05 to 5 | 0.05 to 5 | 0.05 to 5 | 0.05 to 5 | 0.05 to 5
Cc1cc2nc3c(c(O)c2cc1C)-c1cccn1C3=O [Compound 781b, 11-hydroxy-8,9-dimethyl-5H-pyrrolizino[2,1-b]quinolin-5-one] | – | 1 to 10 | 0.05 to 5 | – | – | – | – | – | – | 0.05 to 5 | 0.05 to 5 | 0.05 to 5 | 0.05 to 5 | 0.05 to 5 | 0.05 to 5
Cc1cc(C)c2c(=O)c3c([nH]c2c1)C(=O)n1cccc1-3 [Compound 782a, 8,10-Dimethyl-5H-pyrrolizino[2,1-b]quinoline-5,11(6H)-dione] | – | 10 to 50 | 0.05 to 5 | – | – | – | – | – | – | 0.05 to 5 | 0.05 to 5 | 0.05 to 5 | 0.05 to 5 | 0.05 to 5 | 0.05 to 5
Cc1cc(C)c2c(O)c3c(nc2c1)C(=O)n1cccc1-3 [Compound 782b, 11-hydroxy-8,10-dimethyl-5H-pyrrolizino[2,1-b]quinolin-5-one] | – | 1 to 10 | 0.05 to 5 | – | – | – | – | – | – | 0.05 to 5 | 0.05 to 5 | 0.05 to 5 | 0.05 to 5 | 0.05 to 5 | 0.05 to 5

Now from value to compound, other results behind:

IC50 [3, 11] [mM] | IC50 [7] [µM] | IC50 ([3]; HT-1080 cells, 48 h, CCK-8) [mM] | SMILES | IC50 (BHK-21 cells; [8]) [mM] | IC50 [1, 9] [mM] | IC50 [2, 10] [mM] | IC50 [4, 12] [mM] | IC50 [5, 13] [mM] | IC50 [6, 14] [mM] | IC50 (BHK-21 cells; 48 h, CCK-8) [mM] | IC50 ([1]; HFL1 cells, 48 h, CCK-8) [mM] | IC50 ([2]; LX-2, 48 h, LX-2 cells, CCK-8) [mM] | IC50 [4, 15] [mM] | IC50 [5, 16] [mM] | IC50 ([6]; RAT-iCell-C002 cells, CCK-8) [mM]
< 0.05 | 1 to 10 | – | O=C1c2c(nc3cc(Cl)ccc3c2OCc2ccc(Cl)cc2)-c2cccn21 [Compound 508b, 6-chloro-9-((4-chlorobenzyl)oxy)-10H-pyrrolizino[1,2-b]quinolin-10-one] | 0.05 to 5 | 0.05 to 5 | 0.05 to 5 | 0.05 to 5 | 0.05 to 5 | 0.05 to 5 | – | – | – | – | – | –
– | 1 to 10 | 0.05 to 5 | Cc1ccc2nc3c(c(O)c2c1)-c1cccn1C3=O [Compound 777b, 11-hydroxy-9-methyl-5H-pyrrolizino[2,1-b]quinolin-5-one] | – | – | – | – | – | – | 0.05 to 5 | 0.05 to 5 | 0.05 to 5 | 0.05 to 5 | 0.05 to 5 | 0.05 to 5
– | 10 to 50 | 0.05 to 5 | Cc1cccc2c(=O)c3c([nH]c12)C(=O)n1cccc1-3 [Compound 779a, 7-Methyl-5H-pyrrolizino[2,1-b]quinoline-5,11(6H)-dione] | – | – | – | – | – | – | 0.05 to 5 | 0.05 to 5 | 0.05 to 5 | 0.05 to 5 | 0.05 to 5 | 0.05 to 5
– | 10 to 50 | 0.05 to 5 | Cc1cc(C)c2[nH]c3c(c(=O)c2c1)-c1cccn1C3=O [Compound 780a, 7,9-Dimethyl-5H-pyrrolizino[2,1-b]quinoline-5,11(6H)-dione] | – | – | – | – | – | – | 0.05 to 5 | 0.05 to 5 | 0.05 to 5 | 0.05 to 5 | 0.05 to 5 | 0.05 to 5
– | 1 to 10 | 0.05 to 5 | Cc1cc(C)c2nc3c(c(O)c2c1)-c1cccn1C3=O [Compound 780b, 11-hydroxy-7,9-dimethyl-5H-pyrrolizino[2,1-b]quinolin-5-one] | – | – | – | – | – | – | 0.05 to 5 | 0.05 to 5 | 0.05 to 5 | 0.05 to 5 | 0.05 to 5 | 0.05 to 5
– | 10 to 50 | 0.05 to 5 | Cc1cc2[nH]c3c(c(=O)c2cc1C)-c1cccn1C3=O [Compound 781a, 8,9-Dimethyl-5H-pyrrolizino[2,1-b]quinoline-5,11(6H)-dione] | – | – | – | – | – | – | 0.05 to 5 | 0.05 to 5 | 0.05 to 5 | 0.05 to 5 | 0.05 to 5 | 0.05 to 5
